The target of this assay is T1, Human HPK1, catalytic domain (Homo sapiens, UniProt Q92918).
T1 construct: purchased Carna
T1 sequence (Q92918 1-346): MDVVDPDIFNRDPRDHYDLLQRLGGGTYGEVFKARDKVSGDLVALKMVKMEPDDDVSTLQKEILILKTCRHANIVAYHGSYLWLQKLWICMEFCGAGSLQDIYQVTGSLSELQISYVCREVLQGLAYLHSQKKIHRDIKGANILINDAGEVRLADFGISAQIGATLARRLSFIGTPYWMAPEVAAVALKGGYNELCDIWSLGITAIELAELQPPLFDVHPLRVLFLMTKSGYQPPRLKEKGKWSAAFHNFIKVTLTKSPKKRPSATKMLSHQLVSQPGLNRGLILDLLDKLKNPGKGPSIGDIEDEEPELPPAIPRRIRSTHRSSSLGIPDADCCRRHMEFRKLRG
The assay is described as follows: HPK1-SLP76 TR-FRET assay. To be noted: 75 pM HPK1, 10 uM ATP, 10 nM SLP76, 30 min compound pre-incubation. The assay is classed as biochemical. (In general: In TR-FRET formats the signal depends on donor and acceptor labels being close together.)

The IC50 is the concentration that gives 50% inhibition. Read a low IC50 as greater potency.

On to `NC(=O)c1cnc(Nc2ccc(F)c(C(F)(F)F)c2)nc1Nc1cccc2c1CCNC2=O` [Example 25-37, 2-{[4-fluoro-3-(trifluoromethyl)phenyl]amino}-4-[(1-oxo-1,2,3,4-tetrahydroisoquinolin-5-yl)amino]pyrimidine-5-carboxamide], for which the IC50 came out at 69 nM. With `COc1cc2c(cc1Nc1ncc(C(N)=O)c(Nc3cccc4c3CCN(C)C4)n1)CN(C)CC2` [Example 16-1, 2-((6-methoxy-2-methyl-1,2,3,4-tetrahydroisoquinolin-7-yl)amino)-4-((2-methyl-1,2,3,4-tetrahydroisoquinolin-5-yl)amino)pyrimidine-5-carboxamide] the figure was 0.09 nM; with `COC(=O)N1CCc2cc(OC)c(Nc3ncc(C(N)=O)c(Nc4ccccc4Br)n3)cc2C1` [Example 12-12, methyl 7-({4-[(2-bromophenyl)amino]-5-carbamoylpyrimidin-2-yl}amino)-6-methoxy-3,4-dihydroisoquinoline-2(1H)-carboxylate], 284 nM.

Turning to `COc1ccc(C(N)=O)cc1Nc1ncc(C(N)=O)c(Nc2ccccc2Br)n1` [Example 7-95, 4-[(2-bromophenyl)amino]-2-[(5-carbamoyl-2-methoxyphenyl)amino]pyrimidine-5-carboxamide], the IC50 is 548 nM. Against the preceding compound, the IC50 is about 1.9-fold higher.

As for `COC(=O)c1ccccc1Nc1nc(Nc2cc3c(cc2OC)CCN(C)C3)ncc1C(N)=O` [Example 7-94, methyl 2-({5-carbamoyl-2-[(6-methoxy-2-methyl-1,2,3,4-tetrahydroisoquinolin-7-yl)amino]pyrimidin-4-yl}amino)benzoate], the midpoint of inhibition, the IC50, lay at 0.88 nM.

For the compound `Cc1cccc(F)c1Nc1nc(Nc2cc3c(cc2Cl)CCN(C)C3)ncc1C(N)=O` [Example 4-5, 2-[(6-chloro-2-methyl-1,2,3,4-tetrahydroisoquinolin-7-yl)amino]-4-[(2-fluoro-6-methylphenyl)amino] pyrimidine-5-carboxamide], half-maximal inhibition (IC50) required 0.61 nM.

Regarding `COc1cc2c(cc1Nc1ncc(C(N)=O)c(Nc3ccccc3Br)n1)CN(C(=O)C1(N(C)C)CCC1)CC2` [Example 12-7, 4-[(2-bromophenyl)amino]-2-({2-[1-(dimethylamino)cyclobutane-1-carbonyl]-6-methoxy-1,2,3,4-tetrahydroisoquinolin-7-yl}amino)pyrimidine-5-carboxamide], the IC50 is 1.96 nM.

The compound `COc1cc2c(cc1Nc1ncc(C(N)=O)c(Nc3cccc(CO)c3)n1)CN(C)CC2` [Example 1-1, 4-((3-(Hydroxymethyl)phenyl)amino)-2-((6-methoxy-2-methyl-1,2,3,4-tetrahydroisoquinolin-7-yl)amino)pyrimidine-5-carboxamide] yielded a concentration for half-maximal inhibition (IC50) of 0.35 nM. With `NC(=O)c1cnc(NCc2ccc(C(F)(F)F)cc2)nc1Nc1cccc2c1CCNC2=O` [Example 25-38, 4-[(1-oxo-1,2,3,4-tetrahydroisoquinolin-5-yl)amino]-2-({[4-(trifluoromethyl)phenyl]methyl}amino)pyrimidine-5-carboxamide] the figure was 404 nM; with `NC(=O)c1cnc(Nc2ccccc2)nc1Nc1cccc2c1CCNC2=O` [Example 25-1, 4-[(1-oxo-1,2,3,4-tetrahydroisoquinolin-5-yl)amino]-2-(phenylamino)pyrimidine-5-carboxamide], 24.4 nM; with `COc1cc2c(cc1Nc1ncc(C(N)=O)c(N[C@H]3CC[C@@H](N)CC3)n1)CN(C)CC2` [Example 26-5, 4-[(cis-4-aminocyclohexyl)amino]-2-[(6-methoxy-2-methyl-1,2,3,4-tetrahydroisoquinolin-7-yl)amino]pyrimidine-5-carboxamide], 9.79 nM. With `COc1cc2c(cc1Nc1ncc(C(N)=O)c(NC(C)c3ccccc3C(F)(F)F)n1)CN(C)CC2` (centres unmarked) [Example 26-22, 2-[(6-methoxy-2-methyl-1,2,3,4-tetrahydroisoquinolin-7-yl)amino]-4-({1-[2-(trifluoromethyl)phenyl]ethyl}amino)pyrimidine-5-carboxamide] the figure was 1.43 nM; with `COc1cc(C2CNC2)ccc1Nc1ncc(C(N)=O)c(Nc2ccccc2Br)n1` [Example 8-4, 2-((4-(azetidin-3-yl)-2-methoxyphenyl)amino)-4-((2-bromophenyl)amino)pyrimidine-5-carboxamide], 13.9 nM. With `Cc1cccc(Nc2ncc(C(N)=O)c(Nc3cccc4c3CCNC4=O)n2)c1` [Example 25-19, 2-[(3-methylphenyl)amino]-4-[(1-oxo-1,2,3,4-tetrahydroisoquinolin-5-yl)amino]pyrimidine-5-carboxamide] the figure was 2.61 nM; with `Cn1cc(Nc2ncc(C(N)=O)c(Nc3cccc4c3CCNC4)n2)c(=O)[nH]1` [Example 7-11, 2-[(1-methyl-3-oxo-2,3-dihydro-1H-pyrazol-4-yl)amino]-4-[(1,2,3,4-tetrahydroisoquinolin-5-yl)amino]pyrimidine-5-carboxamide], 111 nM; with `COCC(=O)N1CCc2cc(OC)c(Nc3ncc(C(N)=O)c(Nc4ccccc4Br)n3)cc2C1` [Example 12-5, 4-[(2-bromophenyl)amino]-2-{[6-methoxy-2-(methoxyacetyl)-1,2,3,4-tetrahydroisoquinolin-7-yl]amino}pyrimidine-5-carboxamide], 112 nM. As to `Cc1cc(Nc2ncc(C(N)=O)c(Nc3cccc4c3CCNC4=O)n2)cc(C(F)(F)F)c1` [Example 25-29, 2-{[3-methyl-5-(trifluoromethyl)phenyl]amino}-4-[(1-oxo-1,2,3,4-tetrahydroisoquinolin-5-yl)amino]pyrimidine-5-carboxamide], the IC50 was 65.2 nM. With `COc1cc2c(cc1Nc1ncc(C(N)=O)c(Nc3ccccc3CC(C)c3ccccc3)n1)CN(C)CC2` (centres unmarked) [Example 13-7, 2-[(6-methoxy-2-methyl-1,2,3,4-tetrahydroisoquinolin-7-yl)amino]-4-{[2-(2-phenylpropyl)phenyl]amino}pyrimidine-5-carboxamide] the figure was 215 nM; with `NC(=O)c1cnc(Nc2cccc(C(F)(F)F)c2F)nc1Nc1cccc2c1CCNC2=O` [Example 25-42, 2-{[2-fluoro-3-(trifluoromethyl)phenyl]amino}-4-[(1-oxo-1,2,3,4-tetrahydroisoquinolin-5-yl)amino]pyrimidine-5-carboxamide], 89.9 nM; with `COc1cc2c(cc1Nc1ncc(C(N)=O)c(Nc3cccc4nn[nH]c34)n1)CN(C)CC2` [Example 7-5, 4-[(1H-benzotriazol-7-yl)amino]-2-[(6-methoxy-2-methyl-1,2,3,4-tetrahydroisoquinolin-7-yl)amino]pyrimidine-5-carboxamide], 0.5 nM. In turn, `NC(=O)c1cnc(Nc2ccc3c(c2)COCC3)nc1Nc1ccccc1Br` [Example 7-107, 4-[(2-bromophenyl)amino]-2-[(3,4-dihydro-1H-2-benzopyran-7-yl)amino]pyrimidine-5-carboxamide] returned an IC50 of 55 nM.

On to `COc1cc2c(cc1Nc1ncc(C(N)=O)c(N[C@@H](C)c3cccc(F)c3F)n1)CN(C)CC2` [Example 26-19, 4-{[(1S)-1-(2,3-difluorophenyl)ethyl]amino}-2-[(6-methoxy-2-methyl-1,2,3,4-tetrahydroisoquinolin-7-yl)amino]pyrimidine-5-carboxamide], for which half-maximal inhibition (IC50) was put at 2.49 nM. With `NC(=O)c1cnc(Nc2cnn(C3CCC3)c2)nc1Nc1cccc2c1CCNC2=O` [Example 7-51, 2-[(1-cyclobutyl-1H-pyrazol-4-yl)amino]-4-[(1-oxo-1,2,3,4-tetrahydroisoquinolin-5-yl)amino]pyrimidine-5-carboxamide] the figure was 4.21 nM.
